# Measurements: publication PMC12648313, “Enhancing the Efficacy, Utility, and Throughput of the Transcription Block Survival Peptide Library Screening Platform” (JACS Au, 2025)
# What was measured:
# [1] = system: FAM-CRE DNA; assay: FP binding of ATF2W to CRE DNA; conditions: ATF2W 9 nM-10 μM, FAM-CRE DNA 10 nM, up to 1000x excess
# Protocol: (§1) removed before peptide concentration determination.
# (§2) Peptide samples were suspended in 20
# Post-melt scans at 20°C confirmed the
# Sequential 2 µL injections of ATF2W (50 µM)
# Data from a control experiment whereby […]
# errors are given as one standard deviation.
# Fluorescence polarisation: Fluorescence polarisation was measured in a CLARIOstar […]
# chloride, 5 mM MgCl2, 10 mM TCEP, pH 7.4 buffer. Palindromic FAM-CRE DNA oligo was […]
# purchased from Merck: 5’[6FAM]- […]. 200 µM of the oligo was […]
# prepared in water and then annealed by heating to 95°C for 10 minutes before cooling slowly to room temperature to give a 100 µM duplex stock. Samples containing 10 nM FAM-CRE and a serial dilution of ATF2 (12 nM-10 µM) were prepared and incubated at room temperature for 1 hour before transferring to the assay plate for measurement. Data were fit to a one site binding model. For antagonism experiments, the ATF2 concentration required for 80% response was selected. Samples containing 10 nM FAM-TRE, 625 nM ATF2 and a serial dilution of ATF2W (29 nM-12 µM) were prepared and incubated at room temperature for 2 hours before transferring to the assay plate for measurement. CREB1/CRE, cJun/TRE and DLX5/H-box DNA antagonism were determined by the equivalent experiments, using the FAM-CRE oligo above; FAM-TRE DNA oligoes: 5’-[6FAM]-[…], 5’- […]
# [6FAM]-[…]; and palindromic FAM-H-Box oligo: 5’-[6FAM]- […]
# [2] = target: T1, ATF2-CRE DNA interaction (Homo sapiens, UniProt P15336); assay: FP antagonism assay ATF2-CRE; assay type: biochemical; conditions: up to 12 μM ATF2W
# T1 construct: human ATF2 bZIP domain spans from Asp352 to Gln410; made in house; host or cells: chemical synthesis (Fmoc solid-phase peptide synthesis), no expression host
# T1 sequence (P15336 352-410): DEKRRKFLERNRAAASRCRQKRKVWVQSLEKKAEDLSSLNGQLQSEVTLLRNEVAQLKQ
# Protocol: (§3) Fluorescence polarization (FP) was next utilized to confirm that ATF2W binding induces the intended antagonism of the ATF2-CRE interaction. […] To assess ATF2W antagonism, 625 nM ATF2, which corresponded to 80% of the maximum DNA binding, was incubated with CRE DNA (10 nM) and varied concentrations of ATF2W (29 nM-12 μM). […] This represents a ∼ 3-fold selectivity for ATF2. […] As the peptide library was designed using established coiled coil interaction rules, it was expected that many sequences would bind the target.
# (§4) (DMF). Deprotection was performed by addition of 0.75 mL 30% pyrrolidine into the coupling reaction. Peptides were acetylated at the N-terminus by a final reaction with 3x acetic anhydride, 4.5x diisopropylethylamine in DMF for one hour at room temperature. Incubation in a cleavage mixture (95% TFA, 2.5% triisopropylsilane, 2.5% H2O, 10 mL) for 4 h at room temperature cleaved the peptide from the resin and removed side chain protecting groups.
# (§5) 2.5% DODT was added to the cleavage cocktail for ATF2. The resin was removed by filtration and cleaved peptides were precipitated in diethyl ether at -80°C and centrifuged.
# (§6) This pellet was washed a further four times with diethyl ether before it was dried overnight at room temperature. […]
# [3] = target: T2, ATF2 (Homo sapiens, UniProt P15336); assay: CD thermal denaturation, ATF2/ATF2W mixture; assay type: binding
# T2 construct: human ATF2 bZIP domain spans from Asp352 to Gln410; made in house; host or cells: chemical synthesis (Fmoc solid-phase peptide synthesis), no expression host
# T2 sequence (P15336 352-410): T1 sequence (P15336 352-410)
# Source text: as §1, §2
# [4] = system: DLX5/H-Box complex; assay: FP antagonism assay DLX5/H-Box; assay type: biochemical; conditions: FAM-H-Box DNA, over the concentration range tested
# [5] = ATF2W alone; 222 nm, 1 to 95 °C, pH 7.4, 10 mM TCEP.HCl; two-state model
# Protocol: as §4, §5
# This pellet was washed a further four times with diethyl ether before it was dried overnight at room temperature. Peptides were resuspended in 1:1 water:acetonitrile (0.1% TFA) before purification using RP-HPLC with a Jupiter Proteo column (4-μm particle size, 90 Å pore size, 250 × 10 mm; Phenomenex) using a water:acetonitrile gradient (0.1% TFA). Peptide masses and purity (>95%) were verified by electrospray ionisation mass spectrometry. Upon solubilising in buffer, peptides were centrifuged to ensure insoluble/aggregated material was removed before peptide concentration determination.
# Circular Dichroism: An Applied Photophysics Chirascan was used for CD measurements, with a 200 µL sample in a 1 mm path length CD cell. […]
# [6] = target: T3, CREB1-CRE complex (Homo sapiens, UniProt P16220); assay: FP antagonism assay CREB1-CRE; assay type: biochemical; conditions: FP IC50, CREB1-CRE vs ATF2-CRE
# T3 construct: Ala283 to Asp341
# T3 sequence (P16220 283-341 isoform P16220-1): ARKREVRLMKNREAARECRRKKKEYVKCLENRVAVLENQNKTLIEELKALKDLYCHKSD
# Protocol: as §3, §4, §5, §6
# [7] = target: T4, cJun-TRE complex (Homo sapiens, UniProt P05412); assay: FP antagonism assay cJun-TRE; assay type: biochemical
# T4 construct: In the case of the CREB1 and cJun bZIP domains
substance,measurement,setting,value
Ac-LEQQLEELAQENEELEKEAAELQQQIARLKNEVAKLENENKTLDREIKALQREYSHKSD-NH2 [ATF2W],interaction with CRE DNA,[1],does not interact with CRE DNA
same,ATF2-CRE antagonism at top concentrations,[2],reducing the FP value to that of free DNA
same,ΔTm relative to ATF2W alone,[3]; heterodimeric ATF2/ATF2W sample vs ATF2W alone,18 °C
same,Tm,"[3]; heterodimeric ATF2/ATF2W sample, 222 nm, 1 to 95 °C, pH 7.4, 10 mM TCEP.HCl, two-state model",55 °C
same,antagonism of DLX5/H-Box interaction,[4],minimal antagonism
same,Tm,[5],37 °C
same,fold selectivity for ATF2 over CREB1,[6],~3 -fold
same,fold selectivity for ATF2 over cJun,"[7]; FP IC50, cJun-TRE vs ATF2-CRE",~3 -fold
same,IC50,"[7]; FP, FAM-TRE DNA, equivalent experiment, pH 7.4",1.85 ± 0.213 µM
